# Assay results as given in the supplement of paper PMC10307832.
# Compound: COc1cc([C@@H]2c3cc4c(cc3[C@@H](O[C@@H]3O[C@@H]5CO[C@@H](C)O[C@H]5[C@H](O)[C@H]3O)[C@H]3COC(=O)[C@H]23)OCO4)cc(OC)c1O [Etoposide] + N=C(N)NC(=N)NCCc1ccccc1 [Phenformin] (partner 250 µM)
# Assay: relative viability (nuclei count vs DMSO), 5 days (fraction); higher = more cells survive
# Conditions: first compound 0.01 µM
# In short: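 Lung cancer cell lines in 1536-well plates were dosed by pin tool the day after seeding, either with one drug alone or with a fixed anchor-drug dose plus five library-drug doses (not always all listed) in √10 steps. After 5 days, cells were fixed and their nuclei stained in one step (final 0.05% Triton X-100, 1% formaldehyde, 1 ug/ml Hoechst), then counted on 4× images. Relative viability is the nuclei count in treated wells divided by that in vehicle wells. Values are medians of duplicate plates.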
row,Cell Line,relative viability
1,NCI-H522,0.665
2,NCI-H1623,0.624
3,NCI-H838,0.517
4,NCI-H1650,0.421
5,NCI-H1993,0.502
6,NCI-H2087,0.407
7,PC-14,0.621
8,LCLC-103H,0.316
9,NCI-H596,0.774
10,NCI-H2228,0.39
11,EMC-BAC-2,0.424
12,NCI-H2085,0.748
13,HCC-366,0.647
14,NCI-H1666,0.513
15,NCI-H647,0.386
16,LK-2,0.563
17,NCI-H2126,0.524
18,NCI-H2342,0.646
19,SK-MES-1,0.654
20,H3255,0.35
21,COR-L23,0.394
22,COR-L 105,0.664
23,LOU-NH91,0.692
24,ChaGo-K-1,0.423
25,NCI-H2170,0.373
26,A549,0.2
27,NCI-H1563,0.628

# Same assay, conditions: first compound 0.03162 µM
row,Cell Line,relative viability
1,NCI-H522,0.623
2,NCI-H1623,0.615
3,NCI-H838,0.64
4,NCI-H1650,0.31
5,NCI-H1993,0.571
6,NCI-H2087,0.508
7,PC-14,0.662
8,LCLC-103H,0.348
9,NCI-H596,0.875
10,NCI-H2228,0.348
11,EMC-BAC-2,0.483
12,NCI-H2085,0.78
13,HCC-366,0.625
14,NCI-H1666,0.571
15,NCI-H647,0.592
16,LK-2,0.641
17,NCI-H2126,0.534
18,NCI-H2342,0.643
19,SK-MES-1,0.683
20,H3255,0.404
21,COR-L23,0.479
22,COR-L 105,0.53
23,LOU-NH91,0.756
24,ChaGo-K-1,0.546
25,NCI-H2170,0.429
26,A549,0.121
27,NCI-H1563,0.7

# Same assay, conditions: first compound 0.1 µM
row,Cell Line,relative viability
1,NCI-H522,0.535
2,NCI-H1623,0.388
3,NCI-H838,0.44
4,NCI-H1650,0.374
5,NCI-H1993,0.528
6,NCI-H2087,0.435
7,PC-14,0.485
8,LCLC-103H,0.329
9,NCI-H596,0.584
10,NCI-H2228,0.224
11,EMC-BAC-2,0.309
12,NCI-H2085,0.532
13,HCC-366,0.327
14,NCI-H1666,0.507
15,NCI-H647,0.509
16,LK-2,0.368
17,NCI-H2126,0.427
18,NCI-H2342,0.425
19,SK-MES-1,0.582
20,H3255,0.353
21,COR-L23,0.434
22,COR-L 105,0.405
23,LOU-NH91,0.692
24,ChaGo-K-1,0.471
25,NCI-H2170,0.468
26,A549,0.116
27,NCI-H1563,0.609

# Same assay, conditions: first compound 0.3162 µM
row,Cell Line,relative viability
1,NCI-H522,0.595
2,NCI-H1623,0.485
3,NCI-H838,0.395
4,NCI-H1650,0.194
5,NCI-H1993,0.51
6,NCI-H2087,0.278
7,PC-14,0.372
8,LCLC-103H,0.346
9,NCI-H596,0.788
10,NCI-H2228,0.176
11,EMC-BAC-2,0.24
12,NCI-H2085,0.547
13,HCC-366,0.333
14,NCI-H1666,0.398
15,NCI-H647,0.245
16,LK-2,0.319
17,NCI-H2126,0.413
18,NCI-H2342,0.351
19,SK-MES-1,0.402
20,H3255,0.322
21,COR-L23,0.287
22,COR-L 105,0.444
23,LOU-NH91,0.653
24,ChaGo-K-1,0.282
25,NCI-H2170,0.409
26,A549,0.0719
27,NCI-H1563,0.55

# Same assay, conditions: first compound 1 µM
row,Cell Line,relative viability
1,NCI-H522,0.614
2,NCI-H1623,0.281
3,NCI-H838,0.183
4,NCI-H1650,0.141
5,NCI-H1993,0.412
6,NCI-H2087,0.143
7,PC-14,0.203
8,LCLC-103H,0.305
9,NCI-H596,0.522
10,NCI-H2228,0.102
11,EMC-BAC-2,0.197
12,NCI-H2085,0.322
13,HCC-366,0.0669
14,NCI-H1666,0.363
15,NCI-H647,0.094
16,LK-2,0.172
17,NCI-H2126,0.236
18,NCI-H2342,0.284
19,SK-MES-1,0.248
20,H3255,0.305
21,COR-L23,0.155
22,COR-L 105,0.39
